The subject of test [1] is IL-2 surface receptor CD25 on PBMC. Kind of test: IL-2 surface receptor CD25 expression, FACS. It counts as cell-based, human. Particulars: cyclotides 4 μM, CsA 5 μg/mL, PHA-L; stimulated untreated PBMCs = 100%. Here is the method:
PBMCs were isolated from blood samples of healthy adults that were provided by the transfusion center of the university hospital in Freiburg (Germany). […] The lymphocyte-enriched layer was transferred into a new vessel and washed three times with PBS and centrifuged again (10 min, twice with 300×g and last time with 800 rpm, 20° C.). For the following experiments, the cells were either stained with CFSE or diluted with medium to 4*10^6 cells/ml. Cells were counted in alight microscope using trypan blue staining and a hemocytometer.
(§1) Following purification, PBMCs were equilibrated for 2 h at 37° C. […] This was followed by washing of each well with 100 μl PBS (centrifugation for 5 min, 1000 rpm, 20° C.) and re-suspending the cells in 100 μl medium for further assays.
Activated cells were transferred into a 96-well plate, centrifuged (5 min, 1000 rpm, 20° C.), washed one time with 100 μl FACS-buffer and stained with CD25 PE for 15 min at 4° C. Then cells were washed twice with FCS-buffer and resuspended in 100 μl FACS-buffer, transferred into FACS vials with a total volume of 250 μl and the expression of IL2 surface receptor CD25 was measured by FACS analysis using a FACSCalibur instrument (BD Biosciences).
Amongst other pathways, T-cell proliferation is determined by binding of the cytokine IL-2 to its cell surface receptor. Therefore the influence of cyclotides on the expression of the IL-2 receptor was tested. […] As control substance CsA was used. […] Treatment with V10A yields 114%±12.5, V10K yields 112%±16.3 and T8K yields 114%±17.3 CD25 surface expression after 24 h as compared to the control (FIG. 11B).

The subject of test [2] is IFN-gamma production of activated PBMCs. Description: IFN-gamma secretion of PBMC, ELISA-based FACS. It is filed as cell-based, human. Particulars: for IFN-gamma production as compared to the control, 36 h: 36 h past stimulation. Here is the method: FIG. 14. IFN-γ secretion by cyclotide-treated PBMC. […] Untreated cells were used as control. Following 24 h or 36 h of cultivation, the cells were restimulated with PMA/Ionomycin for further 6 hour. The amount of IFN-γ was measured in the supernatant of cultured cells using an ELISA-based flow cytometric method. The data are presented as mean and standard deviation (SD) of three independent experiments.
(§2) Activated cells were resuspended in 50 μl of medium, transferred into a 96-well plate and treated with 10 μg/ml PHA-L. After incubation for 24 h cells were re-stimulated with PMA (50 ng/ml) und ionomycin (500 ng/ml) for 6 h. Next, the cells were transferred into Eppendorf tubes, centrifuged (5 min, 3000 RPM, 20° C.) und 50 μl of the supernatant was again transferred into new tubes and stored at −20° C. Production of cytokines was measured and quantified using the FlowCytomix™ kit according to manufacturer's instructions.
Therefore it is of interest to determine whether cyclotides only have anti-proliferative effects or also affect the effector function of T-lymphocytes, which would directly relate to changes in the IFN-gamma and TNF-alpha production. Therefore, the production of both cytokines of cyclotide-treated, activated PBMCs at an early time point after PBMC activation was tested.

For test [3], the system named is IL2 release in human T-cells. Description: IL2 release in human T-cells, ELISA. Particulars: CsA, T20K 4 μM, V10K 4 μM; PHA-L, PMA/ionomycin. It is filed as cell-based. The method, then:
B. IL2 release in human T-cells after treatment with cyclotide. […] After another two hours PHA-L (10 μg/mL) was added to the appropriate wells and incubated over night at 37° C. On the next day T-cells were re-stimulated with Ionomycin (500 ng/mL) and PMA (50 ng/mL) for 6 hours at 37° C. Cells were then centrifuged at 3000 rpm for 5 minutes to gain their supernatants. Supernatants of stimulated T-cells were analyzed for their IL2 release using a human IL-2 ELISA Kit from eBioscience according to the manufacturer's instructions. The color reaction was evaluated at an optical density of 450 nm by the microplate reader Synergy H4 (BioTek).
Moreover, supernatants of stimulated T-cells were analyzed for their IL2 release using a human IL-2 ELISA Kit from eBioscience according to the manufacturer's instructions. The color reaction was evaluated at an optical density of 450 nm by the microplate reader Synergy H4 (BioTek) (FIG. 12B).
In general terms: An ELISA detects its analyte on a solid surface through an enzyme-linked reagent.

For test [4], the system named is IL-2 release in PBMCs. Description: IL-2 release of PBMC, ELISA-based FACS. It is filed as cell-based, human. Particulars: PHA-L 24 h, PMA/ionomycin 6 h; T20K 4 μM, CsA 5 μg/mL. The method, then:
as §1, §2
To analyze the mechanism of cyclotide-mediated anti-proliferation of T-lymphocytes, their effect on the direct release of IL-2 in PBMCs was determined. The cells were treated with a cyclotide and activated with PHA-L. After 24 h the cells were re-stimulated with PMA and ionomycin and the IL-2 concentration in the supernatant (released IL-2) was measured with an ELISA-based FACS methodology (FIG. 12A).

The test system of test [5] is degranulation marker LAMP-1 (CD107a) on activated PBMC. Description: CD107a degranulation analysis. It counts as cell-based, human. Particulars: after 36 h; T20K 4 μM, CsA 5 μg/mL. Here is the method: FIG. 16. Degranulation capacity of cyclotide-treated activated human PBMC. […] After 36 hour of cultivation the cells were restimulated with PMA/Ionomycin for 2.5 hours in the presence of a CD107a mAbs and GolgiStop reagent to determine the amount of degranulation by flow cytometry. Representative data are shown in dot plots (A) and in (B) data are presented as mean and standard deviation (SD) of three independent experiments.
Activated cells were grown for 36 h and then treated for re-stimulation with PMA (50 ng/ml) und ionomycin (500 ng/ml) and stained with CD107a PE. After 1 h the reaction was stopped with 2 μl Golgi-Stop (1:10) and incubated for 2.5 h at 37° C. The cells were transferred into a 96-well plate, centrifuged (5 min, 1000 RPM, 20° C.) and washed with 100 μl FACS-buffer. Afterwards, PBMCs were stained with CD8 PE-Cy5 for 15 min at 4° C. and following to wash cycles with FACS-buffer the cells were resuspended in 100 μl, transferred into FACS vials with a total volume of 250 μl and the degranulation was measured by FACS analysis.
After determining the influence of cyclotide treatment on the effector function of PBMCs on the basis of measuring IFN-gamma and TNF-alpha cytokine levels, it is of interest to determine an effect of cyclotides on the degranulation activity. Activation of cytotoxic CD8^+-lymphocytes lead to a release of cytolytic granules, which contain/express lysosomal-associated membrane protein 1 (CD107; LAMP-1). During degranulation, the granule vesicle membranes fuse with the membranes of activated CD8^+-lymphocytes and therefore LAMP-1 can be used as a marker protein for the cytotoxic activity of T-lymphocytes, which can be measured with FACS. After 36 h, 42%±21.4 of the CsA- and 49%±16.8 of the T20K-treated cells contain the degranulation marker LAMP-1 as compared to the control (FIG. 16). This can be interpreted in the way that CsA- and T20K-treated cells have reduced cytotoxicity.

Bridge positions count the residues as written; N and C are the ends. Peptide text beside a SMILES is read from it.

Here are results for two compounds from patent US10357537B2, “Cyclotides as immunosuppressive agents” (priority 2011, dated 2019).

On to `CC(C)C[C@@H]1NC(=O)CNC(=O)[C@H](CC(N)=O)NC(=O)[C@H](CCCNC(=N)N)NC(=O)[C@H]([C@@H](C)O)NC(=O)[C@@H]2CSSC[C@@H]3NC(=O)[C@H]([C@@H](C)O)NC(=O)CNC(=O)CNC(=O)[C@H](C(C)C)NC(=O)[C@@H]4CSSC[C@H](NC(=O)[C@H](CCCCN)NC(=O)[C@H](CSSC[C@H](NC(=O)[C@H](C(C)C)NC(=O)[C@@H]5CCCN5C1=O)C(=O)NCC(=O)N[C@@H](CCC(=O)O)C(=O)N[C@@H]([C@@H](C)O)C(=O)N4)NC(=O)CNC(=O)[C@@H]1CCCN1C(=O)[C@H]([C@@H](C)O)NC(=O)[C@H](CC(N)=O)NC3=O)C(=O)N[C@@H](CO)C(=O)N[C@@H](Cc1c[nH]c3ccccc13)C(=O)N1CCC[C@H]1C(=O)N[C@@H](C(C)C)C(=O)N2` [Kalata T20K] (cyclo(CGETCVGGTCNTPGCKCSWPVCTRNGLPV); disulfide 1-15, 5-17, 10-22 (inferred); ring closure inferred), for which, in test [1], the “CD25 expression after 48 h” value is recorded as 46%±18.2 and the “CD25 surface expression after 24 hours” value is on record as 79%±10.1. Further, in test [2] (24 h + 6 h PMA/ionomycin, T20K 4 μM, CsA 5 μg/mL), the “IFN-gamma concentration as compared to the control, 24 h” value was 21%±13.2. Moreover, the “IFN-gamma production as compared to the control, 36 h” value in test [2] is given as “did not induce significant changes in the level of IFN-gamma”. Besides, the “IL2 release in human T-cells” value in test [3] was “significant inhibition of cell proliferation in accordance to the IL2 level”. Moreover, in test [4], the “IL-2 release as compared to the control cells” value was 24%±18.6. Also, the “cells containing the degranulation marker LAMP-1 as compared to the control” value in test [5] is recorded as 49%±16.8.
“kalata B1 mutant GLPVCGETCKGGTCNTPGCTCSWPVCTRN (SEQ ID No. 10) [Kalata V10K]”: in test [1], the “CD25 expression after 48 h” value is on record as “no significant change in receptorexpression” and the “CD25 surface expression after 24 hours” value is reported as 112%±16.3. Also, the “IFN-gamma production as compared to the control, 36 h” value in test [2] was “did not induce significant changes in the level of IFN-gamma”. Also, the “IL2 release in human T-cells” value in test [3] was “comparable results”. Further, the “IL-2 release as compared to the control cells” value in test [4] is on record as “no effect on the release of IL-2”. For the same compound, the “cells containing the degranulation marker LAMP-1 as compared to the control” value in test [5] was “no influence on the degranulation activity”.
